Like-named read-outs stand apart in the source and are kept apart here.
What was measured:
[1] = test system: diseased primary human synovial fibroblasts; assay: Cytokine response by primary human synovial fibroblasts stimulated with IL-17A, TNF-α or both; format: cell-based; settings: Fibroblast, 48 h
Protocol: Primary synovial fibroblasts isolated from the knee of a patient diagnosed with rheumatoid arthritis/osteoarthritis were obtained from Asterand (Detroit, Mich.) and maintained in FGM-2 fibroblast growth medium (Lonza, Allendale, N.J.). Cells were seeded at approximately 1.6e4 cells/ml and incubated at 37° C. in a humidified atmosphere at 5% CO2 until the cells reached ˜90% confluence. Cells were pre-treated with the test compounds (10 μM down by ⅕ in a 4-point serial dilution series) for 1 h at 37° C. in a humidified atmosphere at 5% CO2. DMSO at a final concentration of 0.1% served as the non-inhibited control. […] Cells were stimulated with 10 ng/ml human recombinant IL-17A (eBioscience, San Diego, Calif.), 10 ng/ml TNF-α, (Cell Signaling Technology, Danvers, Mass.) or both, for 48 h. Supernatant was then collected and analyzed for cytokine concentrations using the Bio-Plex Pro Human Cytokine 17-Plex Panel supplemented with RANTES and VEGF Singleplex analytes (Bio-Rad Laboratories, Hercules, Calif.) according to the manufacturer's instructions. Magnetic beads were measured on the Bio-Plex MAGPIX multiplex reader instrument using the accompanying xPONENT 4.2 acquisition software (Bio-Rad Laboratories). Data were analyzed via the Bio-Plex Manager software v6.1 (Bio-Rad Laboratories).

WDR9 = target: T1, WDR9 (Homo sapiens, UniProt Q9NSI6); assay: Bromodomain binding assay: WDR9
T1 construct: made in house; host or cells: E. coli host derived from the BL21 strain (T7 phage lysate)
T1 sequence (Q9NSI6 1313-1418 limits assumed): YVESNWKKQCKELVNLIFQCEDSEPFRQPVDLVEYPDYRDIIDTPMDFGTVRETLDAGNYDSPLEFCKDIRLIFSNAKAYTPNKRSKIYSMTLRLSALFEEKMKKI
Protocol: (§1) T7 phage strains displaying bromodomains were grown in parallel in 24-well blocks in an E. coli host derived from the BL21 strain. E. coli were grown to log-phase and infected with T7 phage from a frozen stock (multiplicity of infection=0.4) and incubated with shaking at 32° C. until lysis (90-150 minutes). The lysates were centrifuged (5,000×g) and filtered (0.2 μm) to remove cell debris. […] The liganded beads were blocked with excess biotin and washed with blocking buffer (SeaBlock (Pierce), 1% BSA, 0.05 Tween 20, 1 mM DTT) to remove unbound ligand and to reduce non-specific phage binding. […] Test compounds (T62 and 46) were prepared as 1000× stocks in 100% DMSO and subsequently diluted 1:10 in monoethylene glycol (MEG) to create stocks at 100× the screening concentration (resulting stock solution is 10% DMSO/90% MEG). The compounds were then diluted directly into the assays such that the final concentration of DMSO and MEG were 0.1% and 0.9%, respectively. All reactions were performed in polystyrene 96-well plates in a final volume of 0.135 ml. […] The bromodomain concentration in the eluates was measured by qPCR. Compounds were assayed for binding activity against a panel of 40 bromodomain-containing proteins.

BRPF3 = target: T2, BRPF3 (Homo sapiens, UniProt Q9ULD4); assay: Bromodomain binding assay: BRPF3
T2 construct: T7 phage strains displaying bromodomains were grown in parallel; made in house; host or cells: E. coli host derived from BL21, infected with T7 phage
T2 sequence (Q9ULD4 589-693 limits assumed, species assumed): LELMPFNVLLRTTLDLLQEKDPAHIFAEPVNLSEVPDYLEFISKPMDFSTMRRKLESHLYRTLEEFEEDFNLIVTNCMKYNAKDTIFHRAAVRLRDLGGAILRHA
Protocol: as §1

ATAD2B = target: T3, ATAD2B (Homo sapiens, UniProt Q9ULI0); assay: Bromodomain binding assay: ATAD2B
T3 construct: T7 phage strains displaying bromodomains were grown in parallel; made in house; host or cells: E. coli host derived from BL21, infected with T7 phage
T3 sequence (Q9ULI0 951-1066 limits assumed, species assumed): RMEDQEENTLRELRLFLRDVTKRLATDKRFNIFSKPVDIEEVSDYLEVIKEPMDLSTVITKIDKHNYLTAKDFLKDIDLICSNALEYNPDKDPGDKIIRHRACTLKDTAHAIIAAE
Protocol: as §1

BRD9 = target: T4, BRD9 (Homo sapiens, UniProt Q9H8M2); assay: Bromodomain binding assay: BRD9
T4 construct: T7 phage strains displaying bromodomains were grown in parallel; made in house; host or cells: E. coli host derived from BL21, infected with T7 phage
T4 sequence (Q9H8M2 136-240 limits assumed, species assumed): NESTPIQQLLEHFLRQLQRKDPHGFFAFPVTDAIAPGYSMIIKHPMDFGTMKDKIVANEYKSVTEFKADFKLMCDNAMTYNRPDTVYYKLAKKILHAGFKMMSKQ
Protocol: as §1

BRPF1 = target: T5, BRPF1 (Homo sapiens, UniProt P55201); assay: Bromodomain binding assay: BRPF1
T5 construct: T7 phage strains displaying bromodomains were grown in parallel; made in house; host or cells: E. coli host derived from BL21, infected with T7 phage
T5 sequence (P55201 628-732 limits assumed, species assumed): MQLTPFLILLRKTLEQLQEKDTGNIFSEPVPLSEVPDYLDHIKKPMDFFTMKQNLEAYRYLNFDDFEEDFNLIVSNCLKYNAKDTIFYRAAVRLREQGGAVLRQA
Protocol: as §1

BRDT = target: T6, BRDT (Homo sapiens, UniProt Q58F21); assay: Bromodomain binding assay: BRDT
T6 construct: read out by qPCR of the phage DNA
Protocol: as §1

FALZ = target: T7, FALZ (Homo sapiens, UniProt Q12830); assay: Bromodomain binding assay: FALZ
T7 construct: made in house; host or cells: E. coli host derived from the BL21 strain (T7 phage lysate)
Protocol: as §1

SMARCA2 = target: T8, SMARCA2 (Homo sapiens, UniProt P51531); assay: Bromodomain binding assay: SMARCA2
T8 construct: made in house; host or cells: E. coli host derived from the BL21 strain (T7 phage lysate)
T8 sequence (P51531 1378-1506 limits assumed): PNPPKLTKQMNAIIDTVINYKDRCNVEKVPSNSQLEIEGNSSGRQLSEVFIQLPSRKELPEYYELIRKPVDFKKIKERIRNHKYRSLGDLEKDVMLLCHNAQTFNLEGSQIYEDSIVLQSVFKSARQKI
Protocol: as §1

GCN5L2 = target: T9, GCN5L2 (Homo sapiens, UniProt Q92830); assay: Bromodomain binding assay: GCN5L2
T9 construct: made in house; host or cells: E. coli host derived from the BL21 strain (T7 phage lysate)
T9 sequence (Q92830 728-832 limits assumed): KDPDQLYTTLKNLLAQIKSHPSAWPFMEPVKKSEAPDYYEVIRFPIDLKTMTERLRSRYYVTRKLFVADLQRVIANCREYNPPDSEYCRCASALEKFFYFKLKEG
Protocol: as §1

BAZ2B = target: T10, BAZ2B (Homo sapiens, UniProt Q9UIF8); assay: Bromodomain binding assay: BAZ2B
T10 construct: T7 phage strains displaying bromodomains were grown in parallel; made in house; host or cells: E. coli host derived from BL21, infected with T7 phage
T10 sequence (Q9UIF8 2060-2164 limits assumed, species assumed): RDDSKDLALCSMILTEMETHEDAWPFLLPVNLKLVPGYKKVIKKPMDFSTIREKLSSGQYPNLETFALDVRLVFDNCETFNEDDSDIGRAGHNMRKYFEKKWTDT
Protocol: as §1

BRD8 = target: T11, BRD8 (Homo sapiens, UniProt Q9H0E9); assay: Bromodomain binding assay: BRD8
T11 construct: read out by qPCR of the phage DNA
T11 sequence (Q9H0E9 whole entry): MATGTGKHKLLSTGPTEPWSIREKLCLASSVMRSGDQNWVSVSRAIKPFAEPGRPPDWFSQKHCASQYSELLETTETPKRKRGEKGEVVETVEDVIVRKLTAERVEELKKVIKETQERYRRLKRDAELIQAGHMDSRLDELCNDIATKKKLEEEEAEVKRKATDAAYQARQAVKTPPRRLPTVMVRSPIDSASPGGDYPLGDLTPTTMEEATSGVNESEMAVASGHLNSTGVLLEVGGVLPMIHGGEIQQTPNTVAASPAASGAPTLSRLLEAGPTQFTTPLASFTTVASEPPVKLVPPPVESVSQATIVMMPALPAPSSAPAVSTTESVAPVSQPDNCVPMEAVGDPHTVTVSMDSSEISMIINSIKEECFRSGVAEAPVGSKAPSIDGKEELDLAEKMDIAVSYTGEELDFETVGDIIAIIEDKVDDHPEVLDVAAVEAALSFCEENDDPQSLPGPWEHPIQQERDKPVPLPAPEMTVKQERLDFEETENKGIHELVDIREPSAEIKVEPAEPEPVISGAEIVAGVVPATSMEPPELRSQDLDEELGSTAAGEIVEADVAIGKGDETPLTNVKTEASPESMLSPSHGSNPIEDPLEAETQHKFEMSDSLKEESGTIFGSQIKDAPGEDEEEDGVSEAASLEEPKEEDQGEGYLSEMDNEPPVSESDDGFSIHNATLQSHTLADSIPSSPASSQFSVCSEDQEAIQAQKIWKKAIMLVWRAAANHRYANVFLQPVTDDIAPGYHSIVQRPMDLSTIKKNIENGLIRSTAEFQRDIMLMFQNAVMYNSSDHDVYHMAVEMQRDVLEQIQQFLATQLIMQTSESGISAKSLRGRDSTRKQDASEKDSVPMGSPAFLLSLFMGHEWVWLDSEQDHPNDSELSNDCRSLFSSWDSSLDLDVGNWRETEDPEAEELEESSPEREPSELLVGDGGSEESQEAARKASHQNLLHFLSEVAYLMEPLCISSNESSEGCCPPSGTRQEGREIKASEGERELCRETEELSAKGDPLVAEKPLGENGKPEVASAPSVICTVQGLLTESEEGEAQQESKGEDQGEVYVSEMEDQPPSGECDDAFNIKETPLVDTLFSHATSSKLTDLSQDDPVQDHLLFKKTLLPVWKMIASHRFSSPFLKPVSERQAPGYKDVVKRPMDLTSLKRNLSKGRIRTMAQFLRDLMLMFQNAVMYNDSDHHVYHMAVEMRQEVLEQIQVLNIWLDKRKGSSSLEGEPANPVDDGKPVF
Protocol: as §1

SMARCA4 = target: T12, SMARCA4 (Homo sapiens, UniProt P51532); assay: Bromodomain binding assay: SMARCA4
T12 construct: made in house; host or cells: E. coli host derived from the BL21 strain (T7 phage lysate)
T12 sequence (P51532 1453-1564 limits assumed): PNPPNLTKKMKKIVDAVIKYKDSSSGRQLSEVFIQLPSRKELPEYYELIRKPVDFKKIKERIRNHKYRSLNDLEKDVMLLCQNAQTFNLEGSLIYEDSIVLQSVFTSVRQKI
Protocol: as §1

TRIM24 = target: T13, TRIM24 (Homo sapiens, UniProt O15164); assay: Bromodomain binding assay: TRIM24
T13 construct: made in house; host or cells: E. coli host derived from the BL21 strain (T7 phage lysate)
T13 sequence (O15164 899-1004 limits assumed): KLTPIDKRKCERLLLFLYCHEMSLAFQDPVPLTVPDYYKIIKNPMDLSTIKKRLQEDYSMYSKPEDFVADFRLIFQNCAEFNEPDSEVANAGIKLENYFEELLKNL
Protocol: as §1

BRD2 = target: T14, BRD2 (Homo sapiens, UniProt P25440); assay: Bromodomain binding assay: BRD2
T14 construct: read out by qPCR of the phage DNA
T14 sequence (P25440 whole entry): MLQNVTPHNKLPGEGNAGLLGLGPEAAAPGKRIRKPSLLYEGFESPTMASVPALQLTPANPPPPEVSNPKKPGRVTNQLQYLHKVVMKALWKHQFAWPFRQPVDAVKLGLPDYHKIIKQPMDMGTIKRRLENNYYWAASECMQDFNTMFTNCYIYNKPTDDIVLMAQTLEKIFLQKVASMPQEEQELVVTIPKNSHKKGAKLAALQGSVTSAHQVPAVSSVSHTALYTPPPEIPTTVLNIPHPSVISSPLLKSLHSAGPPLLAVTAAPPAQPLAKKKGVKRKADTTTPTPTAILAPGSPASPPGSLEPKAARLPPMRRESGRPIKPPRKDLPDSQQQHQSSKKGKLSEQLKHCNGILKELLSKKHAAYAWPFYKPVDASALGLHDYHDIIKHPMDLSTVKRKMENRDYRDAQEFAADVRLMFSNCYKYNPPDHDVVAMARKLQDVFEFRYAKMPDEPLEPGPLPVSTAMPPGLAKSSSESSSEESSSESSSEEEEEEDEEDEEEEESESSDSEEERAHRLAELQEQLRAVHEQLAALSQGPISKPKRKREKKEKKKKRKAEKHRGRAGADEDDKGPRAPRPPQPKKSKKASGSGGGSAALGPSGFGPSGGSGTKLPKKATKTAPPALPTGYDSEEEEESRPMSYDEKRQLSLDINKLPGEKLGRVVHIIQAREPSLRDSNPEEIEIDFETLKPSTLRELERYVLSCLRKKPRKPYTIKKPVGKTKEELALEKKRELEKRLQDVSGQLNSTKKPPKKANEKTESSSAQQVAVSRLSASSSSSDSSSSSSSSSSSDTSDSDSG
Protocol: as §1

PBRM1 = target: T15, PBRM1 (Homo sapiens, UniProt Q86U86); assay: Bromodomain binding assay: PBRM1
T15 construct: read out by qPCR of the phage DNA
T15 sequence (Q86U86 whole entry): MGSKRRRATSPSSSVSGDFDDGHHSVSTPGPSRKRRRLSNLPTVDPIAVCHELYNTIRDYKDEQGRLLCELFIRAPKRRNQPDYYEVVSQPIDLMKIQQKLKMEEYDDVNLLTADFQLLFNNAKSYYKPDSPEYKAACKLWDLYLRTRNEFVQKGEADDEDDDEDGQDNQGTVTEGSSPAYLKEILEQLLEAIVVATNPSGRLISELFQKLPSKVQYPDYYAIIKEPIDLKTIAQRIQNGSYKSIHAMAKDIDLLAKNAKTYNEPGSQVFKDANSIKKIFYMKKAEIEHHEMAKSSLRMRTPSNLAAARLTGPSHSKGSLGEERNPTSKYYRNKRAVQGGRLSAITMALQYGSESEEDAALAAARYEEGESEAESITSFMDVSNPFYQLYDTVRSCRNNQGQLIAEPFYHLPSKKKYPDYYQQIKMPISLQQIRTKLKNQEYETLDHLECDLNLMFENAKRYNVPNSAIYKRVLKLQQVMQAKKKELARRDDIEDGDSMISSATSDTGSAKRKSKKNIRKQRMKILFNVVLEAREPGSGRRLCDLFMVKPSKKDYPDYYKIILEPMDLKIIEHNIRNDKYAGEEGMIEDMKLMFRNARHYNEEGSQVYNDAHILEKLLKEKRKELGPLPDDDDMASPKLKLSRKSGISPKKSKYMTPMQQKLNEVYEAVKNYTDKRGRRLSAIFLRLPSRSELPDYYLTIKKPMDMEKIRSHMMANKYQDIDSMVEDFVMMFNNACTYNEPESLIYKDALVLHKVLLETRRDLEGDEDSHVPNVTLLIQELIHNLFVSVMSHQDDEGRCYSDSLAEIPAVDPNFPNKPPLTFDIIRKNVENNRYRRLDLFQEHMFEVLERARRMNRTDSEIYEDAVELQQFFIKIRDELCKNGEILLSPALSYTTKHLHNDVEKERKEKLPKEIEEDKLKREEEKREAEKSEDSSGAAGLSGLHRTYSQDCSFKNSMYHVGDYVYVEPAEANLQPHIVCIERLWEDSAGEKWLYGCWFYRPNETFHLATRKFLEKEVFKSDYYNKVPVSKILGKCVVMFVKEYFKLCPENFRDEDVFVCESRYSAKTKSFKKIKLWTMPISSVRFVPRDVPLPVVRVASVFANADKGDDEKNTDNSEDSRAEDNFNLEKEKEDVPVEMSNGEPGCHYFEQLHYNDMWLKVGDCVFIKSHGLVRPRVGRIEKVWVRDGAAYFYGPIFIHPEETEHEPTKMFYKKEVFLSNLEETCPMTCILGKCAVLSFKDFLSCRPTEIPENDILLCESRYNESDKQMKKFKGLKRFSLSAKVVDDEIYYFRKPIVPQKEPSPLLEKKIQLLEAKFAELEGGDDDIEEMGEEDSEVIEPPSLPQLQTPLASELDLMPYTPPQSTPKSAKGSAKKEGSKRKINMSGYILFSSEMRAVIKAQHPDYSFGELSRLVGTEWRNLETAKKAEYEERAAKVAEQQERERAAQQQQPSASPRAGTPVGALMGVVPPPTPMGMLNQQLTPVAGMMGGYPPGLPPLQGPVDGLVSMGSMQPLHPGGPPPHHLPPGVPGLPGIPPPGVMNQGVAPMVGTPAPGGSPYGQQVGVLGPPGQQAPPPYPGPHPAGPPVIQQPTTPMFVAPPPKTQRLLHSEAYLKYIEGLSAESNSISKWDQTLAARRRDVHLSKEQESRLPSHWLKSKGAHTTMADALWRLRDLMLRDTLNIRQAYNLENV
Protocol: as §1

[2] = +Both IL-17A + TNF-α, read-out: EC50 (μM), G-CSF
[3] = +Both IL-17A + TNF-α, read-out: EC50 (μM), IL-6
[4] = +Both IL-17A + TNF-α, read-out: EC50 (μM), IL-8
[5] = +Both IL-17A + TNF-α, read-out: EC50 (μM), RANTES
[6] = +IL-17A 10 ng/ml, read-out: EC50 (μM), G-CSF
[7] = +IL-17A 10 ng/ml, read-out: EC50 (μM), IL-6
[8] = +IL-17A 10 ng/ml, read-out: EC50 (μM), IL-8
[9] = +IL-17A 10 ng/ml, read-out: EC50 (μM), RANTES
[10] = +TNF-α 10 ng/ml, read-out: EC50 (μM), G-CSF
[11] = +TNF-α 10 ng/ml, read-out: EC50 (μM), IL-6
[12] = +TNF-α 10 ng/ml, read-out: EC50 (μM), IL-8
[13] = +TNF-α 10 ng/ml, read-out: EC50 (μM), RANTES

Kd (WDR9) [µM] | Kd (BRPF3) [µM] | Kd (ATAD2B) [µM] | Kd (BRD9) [µM] | Kd (BRPF1) [µM] | Kd (BRDT) [nM] | Kd (FALZ) [µM] | Kd (SMARCA2) [µM] | SMILES | EC50 [1, 2] [µM] | EC50 [1, 3] [µM] | EC50 [1, 4] [µM] | EC50 [1, 5] [µM] | EC50 [1, 6] [µM] | EC50 [1, 7] [µM] | EC50 [1, 8] [µM] | EC50 [1, 9] [µM] | EC50 [1, 10] [µM] | EC50 [1, 11] [µM] | EC50 [1, 12] [µM] | EC50 [1, 13] [µM] | further results
 |  |  |  |  |  |  |  | CCOc1cc(C(=O)N2CCC(N3CCN(C)CC3)CC2)ccc1Nc1cc2c(cn1)N(C)C(=O)c1ccccc1N2C [Compound 61] | > 10 | > 10 | > 10 | 1.35 | 2.59 | 1.67 | 0.87 | > 10 | 1.27 | 1.05 | 4.51 | 2.78 | 
 |  |  |  |  |  |  |  | CCOc1cc(C(=O)N2CC[C@@H](N(C)C)C2)ccc1Nc1cc2c(cn1)N(C)C(=O)c1ccccc1N2C [Compound 115] | > 10 | > 10 | > 10 | 1.88 | 2.67 | 1.04 | 0.39 | > 10 | 1.25 | 1.71 | > 10 | > 10 | 
> 20 | > 20 | > 20 | > 20 | > 20 | 397 | > 20 | > 20 | CCOc1cc(C(=O)N[C@H]2CC[C@H](O)CC2)ccc1Nc1cc2c(cn1)N(C)C(=O)c1ccccc1N2C [Compound T62] |  |  |  |  |  |  |  |  |  |  |  |  | Kd (GCN5L2): > 20 µM; Kd (BAZ2B): > 20 µM; Kd (BRD8): > 20 µM; Kd (SMARCA4): > 20 µM; Kd (TRIM24): > 20 µM; Kd (BRD2): 93 nM; Kd (PBRM1): > 20 µM
> 20 | > 20 | > 20 | > 20 | > 20 | 169 | > 20 | > 20 | CCOc1cc(C(=O)N2CCC(N3CCCC3)CC2)ccc1Nc1cc2c(cn1)N(C)C(=O)c1ccccc1N2C [Compound 46, 3-(2-Ethoxy-4-(4-(pyrrolidin-1-yl)piperidine-1-carbonyl)phenylamino)-5,11-dimethyl-5H-benzo[e]pyrido[3,4-b][1,4]diazepin-10(11H)-one] |  |  |  |  |  |  |  |  |  |  |  |  | Kd (GCN5L2): > 20 µM; Kd (BAZ2B): > 20 µM; Kd (BRD8): > 20 µM; Kd (SMARCA4): > 20 µM; Kd (TRIM24): > 20 µM; Kd (BRD2): 55 nM; Kd (PBRM1): > 20 µM
